What was measured:
SK-MEL-5 = experiment: NCI human tumor cell line screen, Melanoma SK-MEL-5; type: cell-based; details: for GI50, minipanel cell line F: minipanel comparison, column F (key not visible; values match SK-MEL-5)
Excerpt: (§1) Current research in the control of cancer in the United States is coordinated by the National Cancer Institute (NCI). To determine whether a substance has anti-cancer properties, the NCI has established a systematic protocol. […] The protocol, and the established statistical means for analyzing the results obtained by the standardized testing are fully described in the literature. […] Both of these references are incorporated herein by this reference thereto.

[1] = tested on: L1210 Lymphocytic Leukemia; experiment: Murine in vivo system, L1210 Lymphocytic Leukemia
A498 = experiment: NCI human tumor cell line screen, Renal A498; type: cell-based
Excerpt: as §1

[2] = tested on: P388 Lymphocytic Leukemia; experiment: Murine in vivo system, P388 Lymphocytic Leukemia
[3] = tested on: MX-1 Human Mammary Xenograft; experiment: MX-1 Human Mammary Xenograft (Tumor Regression); type: in vivo, Murine
B16 Melanoma = experiment: Murine in vivo system, B16 Melanoma
[4] = tested on: LOX Human Melanoma Xenograph; experiment: LOX Human Melanoma Xenograph (Nude Mouse); type: in vivo
[5] = tested on: OVCAR-3 Human Ovary Xenograph; experiment: OVCAR-3 Human Ovary Xenograph, Nude Mouse; type: in vivo; details: OVCAR-3 xenograph, 40 μg/kg
M5076 Ovary Sarcoma = experiment: Murine in vivo system, M5076 Ovary Sarcoma
SF-295 = experiment: NCI human tumor cell line screen, CNS SF-295; type: cell-based; details: for GI50, minipanel cell line B: minipanel comparison, column B (key not visible; values match SF-295)
Excerpt: as §1

NCI-H460 = experiment: NCI human tumor cell line screen, Lung-NSC NCI-H460; type: cell-based; details: for GI50, minipanel cell line D: minipanel comparison, column D (key not visible; values match NCI-H460)
Excerpt: as §1

Human Mammary Xenograph = experiment: Human Mammary Xenograph, Nude Mouse; type: in vivo; details: 26 μg/kg
OVCAR-3 = experiment: NCI human tumor cell line screen, Ovarian OVCAR-3; type: cell-based; details: for GI50, minipanel cell line A: minipanel comparison, column A (key not visible; values match OVCAR-3)
Excerpt: as §1

KM20L2 = experiment: NCI human tumor cell line screen, Colon KM20L2; type: cell-based; details: for GI50, minipanel cell line E: minipanel comparison
Excerpt: as §1

human tumor cell lines = experiment: Inhibition of human tumor cell lines (general statements); type: cell-based; details: for at least six cell lines
Excerpt: Current research in the control of cancer in the United States is coordinated by the National Cancer Institute (NCI). To determine whether a substance has anti-cancer properties, the NCI has established a systematic protocol. This protocol, which involves the testing of a substance against a standard cell line panel containing 60 human tumor cell lines, has been verified and is accepted in scientific circles. The protocol, and the established statistical means for analyzing the results obtained by the standardized testing are fully described in the literature. See: Boyd, Dr. Michael R., Principles & Practice of Oncology, PPO Updates, Volume 3, Number 10, October 1989, for an in depth description of the testing protocol; and Paull, K. D., "Display and Analysis of Patterns of Differential Activity of Drugs Against Human Tumor Cell Lines; Development of Mean Graph and COMPARE Algorithm", Journal of the National Cancer Institute Reports, Vol. 81, No. 14, Page 1088, Jul. 14, 1989 for a description of the methods of statistical analysis. Both of these references are incorporated herein by this reference thereto.

[6] = LOX in separate experiments, 9.0 μg/kg
[7] = LOX in separate experiments, 26 μg/kg
[8] = LOX in separate experiments, 43 μg/kg

Substance: Dolastatin 10
- GI50, minipanel cell line F (SK-MEL-5): 0.0074 ng/mL
- T/C ([1]; L1210, 1.63 μg/kg): 120
- T/C ([1]; L1210, 3.25 μg/kg): 139
- T/C ([1]; L1210, 6.5 μg/kg): 135
- T/C ([1]; L1210, 13 μg/kg): 152
- GI50, minipanel cell line C (A498; minipanel comparison, column C (key not visible; values match A498)): 0.026 ng/mL
- cures ([2]; P388, 3.25 μg/kg): 17%
- cures ([2]; P388, 6.5 μg/kg): 17%
- T/C ([2]; P388, 13.0 μg/kg): toxic
- T/C (Tumor Regression) ([3]; MX-1, 6.25 μg/kg): 69
- T/C (Tumor Regression) ([3]; MX-1, 13 μg/kg): 61
- T/C (Tumor Regression) ([3]; MX-1, 26 μg/kg): 50
- T/C (Tumor Regression) ([3]; MX-1, 52 μg/kg): 14
- T/C (B16 Melanoma; B16, 1.44 μg/kg): 142
- T/C (B16 Melanoma; B16, 3.4 μg/kg): 171
- T/C (B16 Melanoma; B16, 4.0 μg/kg): 205
- T/C (B16 Melanoma; B16, 6.67 μg/kg): 182
- T/C (B16 Melanoma; B16, 11.11 μg/kg): 238
- cures (B16 Melanoma; B16, 11.11 μg/kg): 40%
- T/C [4, 6]: 138
- cures [4, 6]: 17%
- T/C ([4]; LOX in separate experiments, 15 μg/kg): 192
- T/C [4, 7]: 181
- cures [4, 7]: 33%
- T/C [4, 8]: 340
- cures [4, 8]: 50%
- T/C ([4]; LOX, 3.25 μg/kg): 170
- cures ([4]; LOX, 3.25 μg/kg): 17%
- cures ([4]; LOX, 6.5 μg/kg): 33%
- cures ([4]; LOX, 13 μg/kg): 50%
- cures ([4]; LOX, 26 μg/kg): 67%
- T/C ([4]; LOX, 52 μg/kg): toxic
- T/C [5]: 300
- T/C (M5076 Ovary Sarcoma; M5076, 3.25 μg/kg): 151
- T/C (M5076 Ovary Sarcoma; M5076, 6.5 μg/kg): 142
- T/C (M5076 Ovary Sarcoma; M5076, 13 μg/kg): 166
- T/C (M5076 Ovary Sarcoma; M5076, 26 μg/kg): toxic
- GI50, minipanel cell line B (SF-295): 7.6e-05 ng/mL
- GI50, minipanel cell line D (NCI-H460): 0.0034 ng/mL
- T/C (Human Mammary Xenograph): Toxic
- GI50, minipanel cell line A (OVCAR-3): 0.00095 ng/mL
- GI50, minipanel cell line E (KM20L2): 0.0047 ng/mL

Substance: L-Dolavalyl-L-Valyl-N-Methyl-(S,S,R)-Dolaisoleucyl-(S,R,R)-Dolaproyl-L-Phenylalanineamide-N-(3-quinoline) [Compound 9g]
- LC-50 (SK-MEL-5; Melanoma SK-MEL-5): > 0.000001 µg/mL
- TGI (SK-MEL-5; Melanoma SK-MEL-5): > 0.001 ng/mL
- GI50, minipanel cell line F (SK-MEL-5): 3e-06 ng/mL
- GI-50 (A498; Renal A498): 0.000000100 µg/mL
- LC-50 (A498; Renal A498): > 0.000001 µg/mL
- TGI (A498; Renal A498): > 0.001 ng/mL
- LC-50 (SF-295; CNS SF-295): > 0.000001 µg/mL
- TGI (SF-295; CNS SF-295): 0.00061 ng/mL
- GI50, minipanel cell line B (SF-295): 4e-05 ng/mL
- LC-50 (NCI-H460; Lung-NSC NCI-H460): > 0.000001 µg/mL
- TGI (NCI-H460; Lung-NSC NCI-H460): 0.00012 ng/mL
- GI50, minipanel cell line D (NCI-H460): 1.3e-05 ng/mL
- LC-50 (OVCAR-3; Ovarian OVCAR-3): > 0.000001 µg/mL
- TGI (OVCAR-3; Ovarian OVCAR-3): 7.9e-05 ng/mL
- GI50, minipanel cell line A (OVCAR-3): 4.6e-07 ng/mL
- LC-50 (KM20L2; Colon KM20L2): > 0.000001 µg/mL
- TGI (KM20L2; Colon KM20L2): 0.00023 ng/mL
- GI50, minipanel cell line E (KM20L2): 3.9e-05 ng/mL
- GI50 (human tumor cell lines): less than 10^-7 μg/ml

— patent publication US5410024A, “Human cancer inhibitory pentapeptide amides” (Arizona Board of Regents acting on behalf of Arizona State …, priority 1993, dated 1995)
